Data on 47 compounds can be found in patent publication US20250042889A1, “3CLPRO PROTEASE INHIBITOR” (SHANGHAI QILU PHARMACEUTICAL RESEARCH AND DEVELOPMENT …, priority 2021, published 2025).

In the first assay the target is SARS-COV-2 3CLpro/Mpro protease (Severe acute respiratory syndrome coronavirus 2 (2019-nCoV) (SARS-CoV-2), UniProt P0DTD1). As to the kind of experiment: Inhibitory effect on SARS-COV-2 3CLpro/Mpro protease by fluorescence resonance energy transfer. The class given is biochemical. The settings on record: IC50 (nM), Inhibition on SARS-CoV-2 3CLpro/Mpro protease, activity intervals A-D.
Regarding `CNc1cncc(C(=O)N2C[C@H](Nc3c(C(=O)N4C5CCCC4COC5)cc(Br)cc3[N+](=O)[O-])[C@@H](OC)C2)c1` [Example 371], the IC50 fell in the range of 10 to 50 nM. For the compound `CNc1cncc(C(=O)N2CCC[C@@H](Nc3c(C(=O)N4CC5CC(C4)O5)cc(Br)cc3[N+](=O)[O-])C2)c1` [Example 266], the IC50 was 10 to 50 nM.

Staying with this assay, now noted: activity intervals A-D, read-out: IC50 (nM), Inhibition on SARS-CoV-2 3CLpro/Mpro protease.
For `CNc1cncc(C(=O)N2C[C@H](Nc3c(C(=O)N4C[C@H](C)O[C@@H](C)C4)cc(Br)cc3[N+](=O)[O-])C(C)(C)C2)c1` [Example 189], the IC50 is 10 to 50 nM. `CNc1cncc(C(=O)N2CCC[C@@H](Nc3c(C(=O)N4CCOCC4)cc(Br)cc3[N+](=O)[O-])C2)c1` [Example 200]: the IC50 fell in the range of 10 to 50 nM. The same measure, in the same setting: to `CNc1cncc(C(=O)N2C[C@H](Nc3c(C(=O)N4C[C@@H](C)O[C@@H](C)C4)cc(Br)cc3[N+](=O)[O-])C[C@H]2C(=O)N[C@@H]2COC(=O)C2)c1` [Example 421] belongs 100 to 200 nM.

Turning to `O=C(c1cncc(I)c1)N1C[C@H](Nc2c(C(=O)N3CCCCC3)cc(Br)cc2[N+](=O)[O-])C(F)(F)C1` [Example 209], the IC50 lay in the range of 10 to 50 nM. In the case of `CNc1cncc(C(=O)N2CCC[C@@H](Nc3c(C(=O)N4C[C@H]5C[C@@H]4CO5)cc(Br)cc3[N+](=O)[O-])C2)c1` [Example 290], the IC50 was 10 to 50 nM.

Consider `O=C(N[C@H]1COCC[C@H]1Nc1c(C(=O)N2CCC(F)(F)CC2)cc(Br)cc1[N+](=O)[O-])c1cncc2cc(Cl)ccc12` [Example 206], for which the IC50 lay in the range of 50 to 100 nM. With `CNc1cncc(C(=O)N2C[C@H](Nc3c(C(=O)N4CCN(CC(F)(F)F)CC4)cc(Br)cc3[N+](=O)[O-])C3(CC3)C2)c1` [Example 84], the IC50 lay within 10 to 50 nM. On the same count and under the same terms, with `CO[C@H]1CN(C(=O)c2cncc3[nH]nnc23)C[C@@H]1Nc1c(C(=O)N2C[C@@H](C)O[C@@H](C)C2)cc(Br)cc1[N+](=O)[O-]` [Example 454, (5-Bromo-2-(((3S,4S)-4-methoxy-1-(2-methyl-3H-1,2,3-triazole[4,5-c]pyridin-7-carbonyl)pyrrolidin-3-yl)amino)-3-nitrophenyl)((2S,6R)-2,6-dimethylmorpholinyl)methanone] the figure was 10 to 50 nM. Regarding `CNc1cncc(C(=O)N2CCC[C@@H](Nc3c(C(=O)N4Cc5cccnc5C4)cc(Br)cc3[N+](=O)[O-])C2)c1` [Example 271], the IC50 lay within 10 to 50 nM.

As for `Cc1cc(C(=O)N2C[C@H](Nc3c(C(=O)N4CC5C(C4)C5(C)C)cc(Br)cc3[N+](=O)[O-])C3(CC3)C2)cc(=O)[nH]1` (some centres unmarked) [Example 88], the IC50 is 10 to 50 nM.

For the compound `CNc1cncc(C(=O)N[C@H]2CCOC[C@H]2Nc2c(C(=O)N3CCC[C@H](C)C3)cc(Br)cc2[N+](=O)[O-])c1` [Example 234], the IC50 was in the range of 10 to 50 nM. Regarding `CNc1cncc(C(=O)N2C[C@H](Nc3c(C(=O)N4C[C@@H](C)O[C@@H](C)C4)cc(Br)cc3[N+](=O)[O-])C[C@H]2C(=O)Nc2nn(C3CC3)cc2Br)c1` [Example 420], the IC50 lay within 50 to 100 nM. In the case of `CNc1cncc(C(=O)N2CC(Nc3c(C(=O)N4CCCCC4)cc(Br)cc3[N+](=O)[O-])C(C)(C)C2)c1` (centres unmarked) [Example 186], the IC50 lay in the range of 10 to 50 nM. Take `COCCN1[C@H](C)CN(C(=O)c2cc(Br)cc([N+](=O)[O-])c2N[C@@H]2CCOC[C@@H]2NC(=O)c2cncc3ccccc23)C[C@@H]1C` [Example 211]: the IC50 is 10 to 50 nM. With `CNc1cncc(C(=O)N2CCC[C@@H](Nc3c(C(=O)N4C[C@@H](C)O[C@H](C)C4)cc(Br)cc3[N+](=O)[O-])C2)c1` [Example 212], the IC50 was 10 to 50 nM.

For the compound `COCCN1CCN(C(=O)c2cc(Br)cc([N+](=O)[O-])c2N[C@@H]2CCOC[C@@H]2NC(=O)c2cncc3ccccc23)CC1` [Example 227], the IC50 fell in the range of 10 to 50 nM. `CNc1cncc(C(=O)N2CCC[C@@H](Nc3c(C(=O)N4CCc5ncsc5C4)cc(Br)cc3[N+](=O)[O-])C2)c1` [Example 315]: the IC50 was 10 to 50 nM. Same read-out and setting: with `CNc1cncc(C(=O)N2CCC[C@@H](Nc3c(C(=O)N4CC=C(C)CC4)cc(Br)cc3[N+](=O)[O-])C2)c1` [Example 311] the figure was 10 to 50 nM; with `CNc1cncc(C(=O)N2C[C@H](Nc3c(C(=O)N4CCCC(F)(F)C4)cc(Br)cc3[N+](=O)[O-])C[C@H]2C(=O)Nc2nn(C)cc2Br)c1` [Example 411], 50 to 100 nM; with `CNc1cncc(C(=O)N2CC(Nc3c(C(=O)N4CCC5(CCC5)CC4)cc(Br)cc3[N+](=O)[O-])C(C)(C)C2)c1` (centres unmarked) [Example 177], 10 to 50 nM. With `CNc1cncc(C(=O)N2CCC[C@@H](Nc3c(C(=O)N4CCO[C@H](C(F)(F)F)C4)cc(Br)cc3[N+](=O)[O-])C2)c1` [Example 286], the IC50 is 10 to 50 nM. `CNc1cncc(C(=O)N2CCC[C@@H](Nc3c(C(=O)N4CCc5oncc5C4)cc(Br)cc3[N+](=O)[O-])C2)c1` [Example 309]: the IC50 fell in the range of 10 to 50 nM. Regarding `CNc1cncc(C(=O)N[C@H]2CCOC[C@H]2Nc2c(C(=O)N3CCCCC3)cc(Br)cc2[N+](=O)[O-])c1` [Example 201], the IC50 was 10 to 50 nM. Same read-out and setting: to `CNc1cncc(C(=O)N2CCC[C@@H](Nc3c(C(=O)N4CC(F)(F)OC(F)(F)C4)cc(Br)cc3[N+](=O)[O-])C2)c1` [Example 368, (R)-(5-bromo-2-((1-(5-(methylamino)nicotinoyl)piperidin-3-yl)amino)-3-nitrophenyl)(2,2,6,6-tetrafluoromorpholinyl)methanone] belongs 10 to 50 nM; to `CNc1cncc(C(=O)N2CCC[C@@H](Nc3c(C(=O)N4CCC(N5C[C@@H](C)O[C@@H](C)C5)CC4)cc(Br)cc3[N+](=O)[O-])C2)c1` [Example 289], 10 to 50 nM. For the compound `CNc1cncc(C(=O)N2CCC[C@@H](Nc3c(C(=O)N4CCC(C5CCOCC5)CC4)cc(Br)cc3[N+](=O)[O-])C2)c1` [Example 317], the IC50 is 10 to 50 nM.

Take `O=C(c1cncc(I)c1)N1C[C@H](Nc2c(C(=O)N3CCC(F)(F)CC3)cc(Br)cc2[N+](=O)[O-])C(F)(F)C1` [Example 192]: the IC50 fell in the range of 10 to 50 nM. With `CNc1cncc(C(=O)N[C@H]2CCCC[C@H]2Nc2c(C(=O)N3C[C@@H](C)O[C@H](C)C3)cc(Br)cc2[N+](=O)[O-])c1` [Example 223], the IC50 lay in the range of 10 to 50 nM. Same read-out and setting: to `CO[C@H]1CN(C(=O)c2cncc3[nH]c(C)nc23)C[C@@H]1Nc1c(C(=O)N2C[C@@H](C)O[C@@H](C)C2)cc(Br)cc1[N+](=O)[O-]` [Example 449, (5-Bromo-2-(((3S,4S)-4-methoxy-1-(2-methyl-3H-imidazol[4,5-c]pyridin-7-carbonyl)pyrrolidin-3-yl)amino)-3-nitrophenyl)((2S,6R)-2,6-dimethylmorpholinyl)methanone] belongs 50 to 100 nM; to `C[C@@H]1CN(C(=O)c2cc(Br)cc([N+](=O)[O-])c2NC2CN(C(=O)c3cncc(I)c3)CC2(F)F)C[C@H](C)O1` (some centres unmarked) [Example 164], 10 to 50 nM. `[2H]C1([2H])CN(C(=O)c2cc(Br)cc([N+](=O)[O-])c2N[C@@H]2CCCN(C(=O)c3cncc(NC)c3)C2)CC([2H])([2H])O1` [Example 353]: the IC50 fell in the range of 10 to 50 nM. `CNc1cncc(C(=O)N2C[C@H](Nc3c(C(=O)N4C[C@@H](C)O[C@@H](C)C4)cc(Br)cc3[N+](=O)[O-])C[C@H]2C(=O)Nc2nn(CCOC)cc2Br)c1` [Example 418, (2S,4R)-4-((4-bromo-2-((2R,6S)-2,6-dimethylmorpholin-4-carbonyl)-6-nitrophenyl)amino)-1-(5-(methylamino)nicotinoyl)-N-(4-bromo-1-(2-methoxyethyl)-1H-pyrazol-3-yl) pyrrolidine-2-formamide]: the IC50 lay within 50 to 100 nM. With `[2H]C([2H])([2H])Nc1cncc(C(=O)N2C[C@H](Nc3c(C(=O)N4C[C@@H](C)O[C@@H](C)C4)cc(Br)cc3[N+](=O)[O-])[C@@H](OC)C2)c1` [Example 443], the IC50 was 10 to 50 nM. `CNc1cncc(C(=O)N2C[C@H](Nc3c(C(=O)N4C[C@@H](C)O[C@@H](C)C4)cc(Br)cc3[N+](=O)[O-])[C@@H](OCc3ccccn3)C2)c1` [Example 458]: the IC50 lay within 10 to 50 nM. Turning to `CNc1cncc(C(=O)N2CCC[C@@H](Nc3c(C(=O)N4CC(=O)NC(C)C4)cc(Br)cc3[N+](=O)[O-])C2)c1` (some centres unmarked) [Example 96], the IC50 fell in the range of 50 to 100 nM. On to `CNc1cncc(C(=O)N2C[C@H](Nc3c(C(=O)N4CC5CCC(C4)O5)cc(Br)cc3[N+](=O)[O-])[C@@H](OC)C2)c1` [Example 360], for which the IC50 is 10 to 50 nM.

`C[C@@H]1CN(C(=O)c2cc(Br)cc([N+](=O)[O-])c2N[C@@H]2COCC[C@@H]2NC(=O)c2cncc3cc(Cl)ccc23)C[C@H](C)N1` [Example 228]: the IC50 is 10 to 50 nM. Still for that read-out and setting: with `CNc1cncc(C(=O)N[C@H]2CCCC[C@H]2Nc2c(C(=O)N3CCCCC3)cc(Br)cc2[N+](=O)[O-])c1` [Example 196] the figure was 10 to 50 nM; with `Nc1cncc(C(=O)N2CCC[C@@H](Nc3c(C(=O)N4CCCCC4)cc(Br)cc3[N+](=O)[O-])C2)c1` [Example 42], 10 to 50 nM; with `CNc1cncc(C(=O)N2CCC[C@@H](Nc3c(C(=O)N4CC5COCC5C4)cc(Br)cc3[N+](=O)[O-])C2)c1` (some centres unmarked) [Example 232], 10 to 50 nM. Turning to `CNc1cncc(C(=O)N2C[C@H](Nc3c(C(=O)N4C[C@@H](C)O[C@@H](C)C4)cc(Br)cc3[N+](=O)[O-])C[C@H]2C(=O)NC2CCN(CCOC)CC2(F)F)c1` (single isomer, unassigned) [Compound 453-P1], the IC50 lay within 50 to 100 nM. With `CNc1cncc(C(=O)N2C[C@H](Nc3c(C(=O)N4C[C@@H](C)O[C@@H](C)C4)cc(Br)cc3[N+](=O)[O-])C[C@H]2C(=O)NC2C[C@@H](C)O[C@@H](C)C2)c1` (some centres unmarked) [Example 433], the IC50 lay within 100 to 200 nM. As for `CNc1ccc2c(C(=O)N3CCC[C@@H](Nc4c(C(=O)N5C[C@@H](C)O[C@@H](C)C5)cc(Br)cc4[N+](=O)[O-])C3)cncc2c1` [Example 326], the IC50 lay in the range of 10 to 50 nM. As to `CNc1cncc(C(=O)N2CC(Nc3c(C(=O)N4CCN(CC5CC5)CC4)cc(Br)cc3[N+](=O)[O-])C(F)(F)C2)c1` (centres unmarked) [Example 170], the IC50 was in the range of 10 to 50 nM. On the same count and under the same terms, with `Cc1cc(C(=O)N2C[C@H](Nc3c(C(=O)NC4CCCCC4)cc(Br)cc3[N+](=O)[O-])C3(CC3)C2)cc(=O)[nH]1` [Example 299] the figure was 10 to 50 nM.
